Measured values published in patent publication US9452997B2, “Piperidine and piperazine derivatives as autotaxin inhibitors” (Merck Patent GmbH, priority 2009, dated 2016).

Target: T1, Recombinant autotaxin (Homo sapiens, UniProt Q13822)
T1 construct: made in house; host or cells: Hi5 insect cells (baculovirus)
Test: Autotaxin assay (Amplex Red, LPC substrate)
Type: biochemical
Details: recombinant autotaxin, LPC substrate, Amplex Red detection; values given as upper bounds
Procedure: Autotaxin activity is measured indirectly by means of Amplex Red Reagent. In this course, Amplex Red is measured as fluorogenic indicator for generated H2O2. Autotaxin converts substrate lysophosphatidylcholine (LPC) to phosphocholine and lysophosphatidylic acid (LPA). After the conversion phosphocholine is reacted with alkaline phosphatase to obtain inorganic phosphate and choline. During the next step choline is oxidized with choline oxidase to yield betaine, whereby H2O2 is generated. H2O2 reacts with Amplex Red Reagent in the presence of peroxidase (Horseradish peroxidase) in an 1:1 stochiometry and yields highly fluorescent resorufin. The generated fluorescence is measured in a reaction-dependent kinetic mode in order to enable subtraction of fluorescence signals of possible other fluorescent compounds that are not part of the reaction from total measured fluorescence.
1.5 μl of a standard solution or of the compounds of the invention are dissolved in 20 mM Hepes pH 7.2 with maximally 7.7% DMSO in individual concentrations. The resulting solution is pre-incubated together with 10 μl (16 ng) of highly purified recombinant autotaxin in a black 384-hole microtiter plate for 30 min at 22° C.
Thereafter, the reaction is started through the addition of 5 μL-a-lysophosphatidyl-choline (LPC), whereby the final concentration of LPC is 75 μM. The mixture is incubated for 90 min. at 37° C. After the incubation Amplex Red Reagent, peroxidase (Horseradish peroxidase) and choline oxidase are added. The fluorescence is immediately measured at a wavelength of 612 nm with an excitation wavelength of 485 nm in a “Tecan Ultra multimode” fluorescence reader. The activity of autotaxin is indirectly calculated via the amount of detected generated H2O2.
For IC50 analysis, ten serial 1:3 dilutions starting at 30 μM for each compound were run in duplicates.
IC50 values were calculated on normalized data. For normalization, control wells were added to each assay plate and the signal of uninhibited control wells was set to 100%, whereas the signal inhibited by 500 μM C14 LPA, (Avanti Polar Lipids, Cat#857120P) was set to 0%. Curves were fitted and IC50 values calculated by the following model using proprietory analysis software: Y=Bottom+(100−Bottom)/(1+10^((Log IC50−X)*HillSlope)) Where X is the logarithm of concentration. Y is the response; Y starts at Bottom and goes to Top with a sigmoid shape. Material
Microtiter plate: PS-Microplate, 384-hole, small volume, black Corning, Cat#3677
Protein: Recombinant autotaxin (baculoviral Hi5 expression)
Substrate: L-a-lysophosphatidyl choline (chicken egg); Avanti Polar Lipids #830071P
Standard: C14 LPA, Avanti Polar Lipids, Cat#857120P
Detection Reagent: Amplex Red Reagent; Invitrogen #A12222; dissolved in 1.923 ml of DMSO peroxidase Type VI-A (horseradish), Sigma #P6782; dissolved in 7.45 ml of test buffer, Choline Oxidase; Sigma #C5896; dissolved in 2.47 ml test buffer
Detection Reagent Mix: 1:100 dilution of Amplex Red Regent in test buffer
Test buffer: 200 mM Tris-HCl, Merck, Cat #1.08219, pH 7.9; 0.1% BSA, lipid free, Roche Cat#775835

| SMILES | IC50 |
| --- | --- |
| O=C(Nc1ccc(-n2cncn2)cc1)C1CC(=O)N(C2CCN(C(=O)OCc3cc(Cl)cc(Cl)c3)CC2)C1 (stereo not shown) [Compound 54, 4-[2-Oxo-4-(4-[1,2,4]triazol-1-yl-phenylcarbamoyl)-pyrrolidin-1-yl]-piperidine-1-carboxylic acid 3,5-dichloro-benzyl ester] | < 10 µM |
| O=C(Nc1ccc(-n2cccn2)cc1)C1CC(=O)N(C2CCN(C(=O)OCc3cc(Cl)cc(Cl)c3)CC2)C1 (stereo not shown) [Compound 55, 4-[2-Oxo-4-(4-pyrazol-1-yl-phenylcarbamoyl)-pyrrolidin-1-yl]-piperidine-1-carboxylic acid 3,5-dichloro-benzyl ester] | < 10 µM |
| CC1=NN(c2ccc(NC(=O)C3CC(=O)N(C4CCN(C(=O)OCc5cc(Cl)cc(Cl)c5)CC4)C3)cc2)C(=O)C1 (stereo not shown) [Compound 56, 4-{4-[4-(3-Methyl-5-oxo-4,5-dihydro-pyrazol-1-yl)-phenylcarbamoyl]-2-oxo-pyrrolidin-1-yl}-piperidine-1-carboxylic acid 3,5-dichloro-benzyl ester] | < 10 µM |
| O=C(Nc1ccc(-c2csnn2)cc1)C1CC(=O)N(C2CCN(C(=O)OCc3cc(Cl)cc(Cl)c3)CC2)C1 (stereo not shown) [Compound 57, 4-[2-Oxo-4-(4-[1,2,3]thiadiazol-4-yl-phenylcarbamoyl)-pyrrolidin-1-yl]-piperidine-1-carboxylic acid 3,5-dichloro-benzyl ester] | < 10 µM |
| O=C(/C=C/c1c[nH]cn1)N1CCN(C2CCN(C(=O)CCc3ccc(C(F)(F)F)cc3)CC2)CC1 [Compound 58, (E)-3-(3H-Imidazol-4-yl)-1-(4-{1-[3-(4-trifluoromethyl-phenyl)-propionyl]-piperidin-4-yl}-piperazin-1-yl)-propenone] | < 10 µM |
| CS(=O)(=O)Nc1ccc(C(=O)N2CCN(C3CCN(C(=O)CCc4ccc(C(F)(F)F)cc4)CC3)CC2)cc1 [Compound 59, N-[4-(4-{1-[3-(4-Trifluoromethyl-phenyl)-propionyl]-piperidin-4-yl}-piperazine-1-carbonyl)-phenyl]-methanesulfonamide] | < 10 µM |
| O=C(CCc1ccc(C(F)(F)F)cc1)N1CCC(N2CCN(C(=O)c3cccc(-c4ncc[nH]4)c3)CC2)CC1 [Compound 60, 1-(4-{4-[3-(1H-Imidazol-2-yl)-benzoyl]-piperazin-1-yl}-piperidin-1-yl)-3-(4-trifluoromethyl-phenyl)-propan-1-one] | < 30 µM |
| O=C(CCc1ccc(Cl)cc1F)N1CCC(N2CCN(C(=O)c3ccc4[nH]nnc4c3)CC2)CC1 [Compound 61, 1-{4-[4-(1H-Benzotriazole-5-carbonyl)-piperazin-1-yl]-piperidin-1-yl}-3-(4-chloro-2-fluoro-phenyl)-propan-1-one] | < 10 µM |
| O=C(OCc1ccc(Cl)cc1F)N1CCC(N2CCN(C(=O)c3ccc4[nH]nnc4c3)CC2)CC1 [Compound 62, 4-[4-(1H-Benzotriazole-5-carbonyl)-piperazin-1-yl]-piperidine-1-carboxylic acid 4-chloro-2-fluoro-benzyl ester] | < 1 µM |
| O=C(OCc1ccc(Cl)cc1F)N1CCC(NC2CCN(C(=O)c3ccc4[nH]nnc4c3)CC2)C1 (stereo not shown) [Compound 63, 3-[1-(1H-Benzotriazole-5-carbonyl)-piperidin-4-ylamino]-pyrrolidine-1-carboxylic acid 4-chloro-2-fluoro-benzyl ester] | < 10 µM |
| O=C(CCc1ccc(Cl)cc1F)N1CCN(C2CCN(C(=O)c3ccc4[nH]c(=O)oc4c3)CC2)CC1 [Compound 64, 6-(4-{4-[3-(4-Chloro-2-fluoro-phenyl)-propionyl]-piperazin-1-yl}-piperidine-1-carbonyl)-3H-benzooxazol-2-one] | < 10 µM |
| O=C(OCc1ccc(Cl)cc1F)N1CCN(C2CCN(C(=O)c3ccc4[nH]c(=O)oc4c3)CC2)CC1 [Compound 65, 4-[1-(2-Oxo-2,3-dihydro-benzooxazole-6-carbonyl)-piperidin-4-yl]-piperazine-1-carboxylic acid 4-chloro-2-fluoro-benzyl ester] | < 1 µM |
| O=C(CCc1ccc(Cl)cc1F)N1CCC(NC2CCN(C(=O)c3ccc4[nH]nnc4c3)CC2)C1 (stereo not shown) [Compound 66, 1-{3-[1-(1H-Benzotriazole-5-carbonyl)-piperidin-4-ylamino]-pyrrolidin-1-yl}-3-(4-chloro-2-fluoro-phenyl)-propan-1-one] | < 10 µM |
| O=C(CCc1ccc(Cl)cc1F)N1CCN(C2CCN(C(=O)c3ccc4[nH]nnc4c3)CC2)CC1 [Compound 67, 1-{4-[1-(1H-Benzotriazole-5-carbonyl)-piperidin-4-yl]-piperazin-1-yl}-3-(4-chloro-2-fluoro-phenyl)-propan-1-one] | < 10 µM |
| O=C(OCc1ccc(C(F)(F)F)cc1)N1CCC(NC2CCN(C(=O)c3ccc4[nH]nnc4c3)CC2)C1 (stereo not shown) [Compound 68, 3-[1-(1H-Benzotriazole-5-carbonyl)-piperidin-4-ylamino]-pyrrolidine-1-carboxylic acid 4-trifluoromethyl-benzyl ester] | < 10 µM |
| O=C(CCc1cc(Cl)cc(Cl)c1)N1CCN(C2CCN(C(=O)c3ccc4[nH]nnc4c3)CC2)CC1 [Compound 69, 1-{4-[1-(1H-Benzotriazole-5-carbonyl)-piperidin-4-yl]-piperazin-1-yl}-3-(3,5-dichloro-phenyl)-propan-1-one] | < 10 µM |
| O=C(OCc1ccc(C(F)(F)F)cc1)N1CCC(NC2CCN(C(=O)c3ccc4[nH]nnc4c3)C2)CC1 (stereo not shown) [Compound 70, 4-[1-(1H-Benzotriazole-5-carbonyl)-pyrrolidin-3-ylamino]-piperidine-1-carboxylic acid 4-trifluoromethyl-benzyl ester] | < 10 µM |
| O=C(OCc1ccc(C(F)(F)F)cc1)N1CCC(N2CCN(C(=O)c3ccc4[nH]nnc4c3)CC2)CC1 [Compound 71, 4-[4-(1H-Benzotriazole-5 carbonyl)-piperazin-1-yl]-piperidine-1-carboxylic acid 4-trifluoromethyl-benzyl ester] | < 1 µM |
| O=C(Nc1ccc(Cl)c(C(F)(F)F)c1)C(=O)N1CCN(C2CCN(C(=O)c3ccc4[nH]nnc4c3)CC2)CC1 [Compound 72, 2-{4-[1-(1H-Benzotriazole-5-carbonyl)-piperidin-4-yl]-piperazin-1-yl}-N-(4-chloro-3-trifluoromethyl-phenyl)-2-oxo-acetamide] | < 10 µM |
| O=C(OCc1ccc(C(F)(F)F)cc1F)N1CCC(N2CCN(C(=O)c3ccc4[nH]nnc4c3)CC2)CC1 [Compound 73, 4-[4-(1H-Benzotriazole-5-carbonyl)-piperazin-1-yl]-piperidine-1-carboxylic acid 2-fluoro-4-trifluoromethyl-benzyl ester] | < 1 µM |
| O=C(OCc1cc(C(F)(F)F)ccc1F)N1CCC(N2CCN(C(=O)c3ccc4[nH]nnc4c3)CC2)CC1 [Compound 74, 4-[4-(1H-Benzotriazole-5-carbonyl)-piperazin-1-yl]-piperidine-1-carboxylic acid 2-fluoro-5-trifluoromethyl-benzyl ester] | < 10 µM |
| O=C(OCc1cc(F)cc(C(F)(F)F)c1)N1CCC(N2CCN(C(=O)c3ccc4[nH]nnc4c3)CC2)CC1 [Compound 75, 4-[4-(1H-Benzotriazole-5-carbonyl)-piperazin-1-yl]-piperidine-1-carboxylic acid 3-fluoro-5-trifluoromethyl-benzyl ester] | < 1 µM |
| O=C(OCc1ccc(OC(F)(F)F)cc1)N1CCC(N2CCN(C(=O)c3ccc4[nH]nnc4c3)CC2)CC1 [Compound 76, 4-[4-(1H-Benzotriazole-5-carbonyl)-piperazin-1-yl]-piperidine-1-carboxylic acid 4-trifluoromethoxy-benzyl ester] | < 1 µM |
| O=C(OCc1cc(Cl)cc(C(F)(F)F)c1)N1CCC(N2CCN(C(=O)c3ccc4[nH]nnc4c3)CC2)CC1 [Compound 77, 4-[4-(1H-Benzotriazole-5-carbonyl)-piperazin-1-yl]-piperidine-1-carboxylic acid 3-chloro-5-trifluoromethyl-benzyl ester] | < 1 µM |
| O=C(OCc1ccc(F)c(Cl)c1)N1CCC(N2CCN(C(=O)c3ccc4[nH]nnc4c3)CC2)CC1 [Compound 78, 4-[4-(1H-Benzotriazole-5-carbonyl)-piperazin-1-yl]-piperidine-1-carboxylic acid 3-chloro-4-fluoro-benzyl ester] | < 1 µM |
